This note sets out measurements from ChEMBL document CHEMBL1201862, “PubChem BioAssay data set” (2004).

Some test systems named below: A549; ACHN; CAKI-1; HCT-15; HOP-62; HT-29; K562; KM12; LOX IMVI; M14; NCI-H226; OVCAR-4; SK-MEL-2; SK-MEL-5; SK-OV-3; SR; TK-10; UACC-257; MDA-N; DU-145.
What all share (test): NCI tumour cell line growth inhibition, 48 h

SMILES strings stand for the structures.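 Protocol summary: plate cells (96-well), add compound at 5 concentrations, incubate 48 h, interpolate endpoints linearly. GI50 marks 50% less growth.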 Activity calls are given as the source filed them. Cut-off read from the data, not from the text of the source: active = GI50 up to about 1.1 µM and inactive = higher.

`C=C(C)[C@H]1CC[C@@]2(C)C(C1)[C@H](C)CC[C@@H]2O` (stereo partly drawn): the GI50 with A549 was > 100 µM (inactive); with ACHN it was > 100 µM (inactive); in the experiment with CAKI-1 it was > 100 µM (inactive); in the experiment on HCT-15 it was over 100 µM; with HOP-62, > 100 µM (inactive); in the experiment with HT-29, 70.5 µM (inactive). Moreover, the GI50 in the experiment on K562, in the experiment with KM12, in the experiment on LOX IMVI, with M14, with NCI-H226 and in the experiment on OVCAR-4 was > 100 µM (inactive) in each case. Besides, the GI50 in the experiment with SK-MEL-2, in the experiment with SK-MEL-5, in the experiment with SK-OV-3, in the experiment with SR, with TK-10 and in the experiment on UACC-257 was > 100 µM (inactive) in each case.

As to `NC1=C(NC(=O)Cc2ccc(F)cc2)C(=O)c2ccccc2C1=O`, the GI50 was 85.3 µM (inactive) in the experiment with A549; 59 µM (inactive) in the experiment on ACHN; > 100 µM (inactive) in the experiment with CAKI-1; over 100 µM in the experiment on HCT-15; > 52.4 µM (inactive) in the experiment with HOP-62; > 100 µM (inactive) in the experiment with HT-29. The GI50 is 58.7 µM (inactive) in the experiment with K562; > 76.9 µM (inactive) in the experiment with KM12; 14.4 µM (inactive) in the experiment with LOX IMVI; 43.8 µM (inactive) in the experiment on M14; > 50.4 µM (inactive) with NCI-H226; > 100 µM (inactive) in the experiment on OVCAR-4. Moreover, the GI50 in the experiment with SK-MEL-2 is > 60 µM (inactive); in the experiment with SK-MEL-5 it was 14.4 µM (inactive); with SK-OV-3 it was 19.4 µM (inactive); with SR, > 76.4 µM (inactive); with TK-10, 30.9 µM (inactive); in the experiment with UACC-257, 79.3 µM (inactive).

Take `CC1(C)C2CCC1(C)C(N/C(=C(/C(Cl)=C(Cl)Cl)[N+](=O)[O-])n1nnc3ccccc31)C2` (stereo not drawn): the GI50 is 33.7 µM (inactive) with A549; 20.9 µM (inactive) in the experiment on ACHN; 18.6 µM (inactive) in the experiment with CAKI-1; 27.7 µM with HCT-15; 24.9 µM (inactive) with HOP-62; 39 µM (inactive) with HT-29. The GI50 was 21.8 µM (inactive) in the experiment on KM12; 33.2 µM (inactive) in the experiment with LOX IMVI; 37.7 µM (inactive) with M14; 36.4 µM (inactive) in the experiment with MDA-N; 19.5 µM (inactive) with NCI-H226; 24.1 µM (inactive) with OVCAR-4. Moreover, the GI50 in the experiment on SK-MEL-2 is 22.9 µM (inactive); with SK-OV-3, 40 µM (inactive); with UACC-257, 38.6 µM (inactive).

Take `Cn1c(O)c(C(=O)Nc2ccc([N+](=O)[O-])cc2)c(=O)n(C)c1=S`: the GI50 was 3.42 µM (inactive) with A549; 2.48 µM (inactive) with ACHN; 2.81 µM (inactive) with CAKI-1; 2.02 µM (inactive) with DU-145; 2.13 µM with HCT-15; 1.23 µM (inactive) in the experiment on HOP-62. The GI50 is 2.23 µM (inactive) in the experiment on HT-29; 3.53 µM (inactive) with K562; 2.49 µM (inactive) in the experiment on KM12; 2.69 µM (inactive) in the experiment with LOX IMVI; 3.37 µM (inactive) in the experiment on M14; 4.33 µM (inactive) in the experiment on NCI-H226. Also, the GI50 was 2.71 µM (inactive) with OVCAR-4; 1.82 µM (inactive) in the experiment on SK-MEL-2; 0.776 µM (active) in the experiment on SK-MEL-5; 3.64 µM (inactive) in the experiment with SK-OV-3; 3.63 µM (inactive) in the experiment with SR; 2.77 µM (inactive) in the experiment on TK-10. Moreover, the GI50 in the experiment on UACC-257 was 2.32 µM (inactive).

With `S=C(Nc1ccc(/N=N/c2ccccc2)cc1)SCc1ccccc1`, the GI50 was 16.9 µM (inactive) in the experiment with A549; 17.5 µM (inactive) in the experiment with ACHN; 16.5 µM (inactive) in the experiment on CAKI-1; 15.9 µM (inactive) with DU-145; 15.1 µM in the experiment on HCT-15; 20.2 µM (inactive) in the experiment with HOP-62. Besides, the GI50 is 23.6 µM (inactive) in the experiment with HT-29; 19.5 µM (inactive) in the experiment with K562; 16.2 µM (inactive) in the experiment with KM12; 18.7 µM (inactive) in the experiment with LOX IMVI; 17.3 µM (inactive) in the experiment with M14; 18.9 µM (inactive) in the experiment with NCI-H226. For the same compound, the GI50 is 16.1 µM (inactive) with OVCAR-4; 21.4 µM (inactive) in the experiment on SK-MEL-2; 15.7 µM (inactive) with SK-MEL-5; 38.8 µM (inactive) in the experiment with SK-OV-3; 12.5 µM (inactive) in the experiment with TK-10; 16.3 µM (inactive) with UACC-257.

In the case of `CC(C)(C)OC(=O)N1N=NC2C3OC(CC3=O)C21` (stereo not drawn), the GI50 with A549 is > 100 µM (inactive); in the experiment on ACHN, > 100 µM (inactive); with CAKI-1, > 100 µM (inactive); with HCT-15, over 100 µM; in the experiment on HOP-62, > 100 µM (inactive); in the experiment with HT-29, > 100 µM (inactive). Besides, the GI50 with K562 was > 100 µM (inactive); in the experiment on KM12, > 10 µM (inactive); with LOX IMVI it was > 100 µM (inactive); with M14, > 100 µM (inactive); with NCI-H226, 2.8 µM (inactive); in the experiment with OVCAR-4, > 10 µM (inactive). Also, the GI50 is > 100 µM (inactive) with SK-MEL-2; > 10 µM (inactive) in the experiment on SK-MEL-5; 18.6 µM (inactive) in the experiment with SK-OV-3; 77.4 µM (inactive) in the experiment on SR; > 100 µM (inactive) in the experiment on TK-10; > 100 µM (inactive) in the experiment with UACC-257.

On to `COc1ccc(NC(=O)Oc2cc(C)c3ccc(=O)cc-3o2)c(OC)c1.COc1ccc(NC(=O)Oc2ccc3c(C)cc(=O)oc3c2)c(OC)c1`, for which the GI50 is > 100 µM (inactive) in the experiment on A549; > 100 µM (inactive) with ACHN; > 100 µM (inactive) in the experiment with CAKI-1; > 100 µM (inactive) in the experiment with DU-145; over 100 µM in the experiment with HCT-15; > 100 µM (inactive) with HOP-62. Further, the GI50 was > 100 µM (inactive) in the experiment on HT-29; 78.7 µM (inactive) in the experiment on KM12; > 100 µM (inactive) in the experiment with M14; > 100 µM (inactive) with MDA-N; > 100 µM (inactive) in the experiment on NCI-H226; 69.8 µM (inactive) with OVCAR-4. For the same compound, the GI50 with SK-MEL-2, with SK-MEL-5, in the experiment with SK-OV-3 and in the experiment with TK-10 was > 100 µM (inactive) in each case.

As to `C=CCc1ccccc1CC1(OCC)OC(=O)c2ccccc21` (stereo not drawn), the GI50 with A549 is > 100 µM (inactive); with ACHN it was > 100 µM (inactive); in the experiment with CAKI-1, > 100 µM (inactive); with DU-145, > 100 µM (inactive); in the experiment with HCT-15, 42.3 µM; in the experiment on HOP-62 it was 94 µM (inactive). Also, the GI50 was 45.2 µM (inactive) with HT-29; 51.8 µM (inactive) with K562; 66.1 µM (inactive) in the experiment with M14; 31.3 µM (inactive) with MDA-N; > 100 µM (inactive) with NCI-H226; > 100 µM (inactive) with OVCAR-4. Also, the GI50 with SK-MEL-2 is 89.3 µM (inactive); in the experiment with SK-MEL-5, 39.9 µM (inactive); in the experiment on SK-OV-3, > 100 µM (inactive); with TK-10, > 100 µM (inactive); in the experiment on UACC-257 it was 60.7 µM (inactive).

Take `Cc1ccccc1-c1c(N)nc(N)nc1C(=O)Nc1nccs1`: the GI50 with A549 is > 100 µM (inactive); in the experiment with ACHN it was > 100 µM (inactive); in the experiment with CAKI-1 it was > 100 µM (inactive); in the experiment on HCT-15, over 100 µM; with HOP-62, > 100 µM (inactive); in the experiment with HT-29, > 100 µM (inactive). In addition, the GI50 with K562, in the experiment on KM12, in the experiment with LOX IMVI, with M14, with NCI-H226 and with OVCAR-4 was > 100 µM (inactive) throughout. Besides, the GI50 in the experiment with SK-MEL-2, with SK-MEL-5, in the experiment with SK-OV-3, in the experiment on SR, in the experiment on TK-10 and in the experiment with UACC-257 was > 100 µM (inactive) throughout.

Consider `COC(=O)C(C(=O)C(=O)Nc1cccc(C)c1)C1=NC(N)SS1` (stereo not drawn), for which the GI50 is > 100 µM (inactive) in the experiment on A549; > 100 µM (inactive) in the experiment on ACHN; > 100 µM (inactive) with CAKI-1; over 100 µM with HCT-15; > 100 µM (inactive) with HOP-62; > 100 µM (inactive) in the experiment on HT-29. The GI50 in the experiment on K562, with KM12, in the experiment with LOX IMVI, in the experiment on M14, with NCI-H226 and with OVCAR-4 was > 100 µM (inactive) each time. Also, the GI50 with SK-MEL-2, in the experiment on SK-MEL-5, with SK-OV-3, with SR, in the experiment with TK-10 and in the experiment with UACC-257 was > 100 µM (inactive) each time.

Consider `COC(C(=O)NCCCCNC(=O)C(OC)c1ccccc1)c1ccccc1` (stereo not drawn), for which the GI50 in the experiment on A549 was > 100 µM (inactive); in the experiment on ACHN it was > 100 µM (inactive); with CAKI-1, > 100 µM (inactive); in the experiment on HCT-15, over 100 µM; in the experiment on HOP-62 it was > 100 µM (inactive); in the experiment with HT-29, > 100 µM (inactive). In addition, the GI50 in the experiment on K562, in the experiment with KM12, in the experiment with LOX IMVI, with M14, in the experiment on NCI-H226 and with OVCAR-4 was > 100 µM (inactive) each time. Moreover, the GI50 with SK-MEL-2, in the experiment on SK-MEL-5, in the experiment on SK-OV-3, with SR, in the experiment with TK-10 and in the experiment with UACC-257 was > 100 µM (inactive) in each case.
